These results are taken from patent US12702478B2, “Devices, methods, and compositions for thermal acceleration and drug delivery” (Rhode Island Hospital, priority 2015, dated 2026).

The structures appear in SMILES notation. Where two headings read alike, the source gives them in different places.

Series [1] can be described thus: Dielectric properties by open-ended coaxial measurement. The format is physicochemical. An excerpt:
Materials or formulations with a high dipole moment as potential thermal accelerants can be expressed by the ε″ and σ values for thermal ablation (radiofrequency, microwave, irreversible electroporation. A person skilled in the art will recognize that in order to show the capacity of a material, or formulations of a material, quantitatively as a thermal accelerant, the concept of permittivity can be employed in lieu of, or in addition to, evaluation of dipole moment. For example, materials can be tested using an electromagnetic wave of sinusoidal frequency ω, which is directed at a subject sample by an open-ended coaxial cable of a low-power oscillator. Measurement of the magnitude and phase of the fraction of the wave which is reflected allows deduction of the complex permittivity of the tissue.
The complex permittivity is defined as ε*=ε′−jε″, where ε′ is the real permittivity and ε″ is the imaginary permittivity. […] The real permittivity is also known as the dielectric constant. The imaginary permittivity is also called the loss factor and can be written ε″=σ/(ωε0), so as to incorporate the electrical conductivity of the material, […]. The quantity a directly scales the power deposited per unit volume according to the following expression, ARD=σ|E|^2, where ARD is Absorption Rate Density (watt m^−3), […] is electrical conductivity (ohm^−1 m^−1), and JEJ is the magnitude of the electrical field (volt m^−1) produced by the microwave antenna at the point of interest in the tissue.

The nature of series [2]: In vitro elution of Doxorubicin from coagulated gel (HPLC). To be noted: for part of drug eluted out over time: citrate buffer pH 7, 36.5° C. The format is physicochemical. How it is done: Methods 2 Absorbance values of three known concentrations of Doxorubicin samples (1.0×10^−6, 9.5×10^−6 and 1.9×10^−5 M) were obtained to established a linear relationship (FIG. 4, Left) using a HPLC system: Agilant 1100; mobile phase=a gradient of ACN and H2O with 1% ammonium acetate; wavelength=500 nm; flow rate=1 mL/min. Each data point was an average of three measurements. Under the HPLC conditions, the retention time of Doxorubicin was at 4.00 minutes. Separately, three different amounts of Doxorubicin (2.1, 1.1 and 0.6 mg) were mixed with HSA-based #1 gel (0.5 mL each) and ablated using the conditions described in Aim 1. Once complete, the coagulated gel impregnated with Doxorubicin was collected and placed in a citrate buffer (5 mL, pH 7) in a water bath at 36.5° C. At 1, 3, 24 and 72 h, a small quantity of solution (0.5 mL) was passed through a membrane filter (cutoff 7 KDa) and injected into the HPLC system to quantify the eluted Doxorubicin. Each data point was triplicated.

A short description of series [3]: Doxorubicin diffusion from coagulated gel in agarose phantom. The format is physicochemical. To be noted: 2.0 mg in 0.5 mL gel. The protocol:
Method 1: In a 1% (w/v) agarose gel as phantom, HSA-based #1 gel (0.5 mL) with Doxorubicin HCl (2.0 mg) was placed 1 cm away from a MW antenna at ambient temperature. The ablation was performed at 60 W for 10 minutes (MicroThermX/Varian 915 MHz). Post ablation, the cooled agarose gel was left at ambient temperature for 48 hours for diffusion of the Doxorubicin.
The solution contained 1 (w/v) % agarose phantom. The ablation conditions: 915 MHz, 60 W for 10 minutes.

A short description of series [4]: In vitro elution of Resiquimod from coagulated gel (HPLC). It is filed as physicochemical. How it is done: Methods 3 Absorbance values of three known concentrations of Resiquimod samples (4.3×10−6, 4.3×10−5 and 8.6×10−5 M) were obtained to established a linear relationship (FIG. 23A) using the HPLC system as described in Methods 2 except wavelength=328 nm and the retention time=3.31 min.

The conditions of series [5]: reference values; cited from earlier work.
The conditions of series [6]: at 100° C.; cited from earlier work.
A further series has as its system rat. The conditions noted are these: cited from earlier work.

Regarding `CO` [MeOH, methanol], in series [1] (915 MHz), the “Dielectric constant (ε′)” value was 31.2 and the “electrical conductivity (σ)” value is 0.1 mho/m. For the same compound, in series [1] (2450 MHz), the “Dielectric constant (ε′)” value is recorded as 22.2 and the “electrical conductivity (σ)” value was determined as 0.1.

For `COc1cccc2c1C(=O)c1c(O)c3c(c(O)c1C2=O)C[C@@](O)(C(=O)CO)C[C@@H]3O[C@H]1C[C@H](N)[C@H](O)[C@H](C)O1` [Doxorubicin], the “part of drug eluted out over time” value in series [2] (0.6 mg in 0.5 mL gel) was found to be 87%; in series [2] (1.1 mg in 0.5 mL gel) it was 64%; in series [2] (2.1 mg in 0.5 mL gel), 57%; in series [4] (0.063 mg), 87%; in series [4] (0.63 mg), 64%; in series [4] (1.25 mg), 57%. In addition, the “elution rate over time” value in series [2] (1, 3, 24, 72 h) is recorded as “highest at 1 h”. The “diffusion to the surrounding area of the phantom” value in series [3] (6 h after ablation) was “apparent”. The “diffusion out of coagulated gel” value in series [3] (immediately after ablation) was “no diffusion out of the protein meshwork”.

For the compound `O` [Water (deionized)], the “Electrical Conductivity (σ) of reference media” value in series [5] is listed as 5 × 10^−6 S/m.

In the case of `O` [Water], the “Dielectric constant (ε′)” value is 78.3 in series [1] (915 MHz) and 76.9 in series [1] (2450 MHz). Also, the results for the “electrical conductivity (σ)” value in series [1] (915 MHz) and in series [1] (2450 MHz) were 0 mho/m and 0.1, respectively.

The term LD50 denotes the dose expected to kill half of the subjects tested. On to `[Cl-].[Cs+]` [CsCl, cesium chloride], for which the solubility in water in series [6] is reported as 2.7 kg/L. Moreover, the LD50 is given as 910 mg/kg with rat (iv) and 2,600 mg/kg in the series on rat (oral).
